Reference: patent US20240351985A1, “NOVEL COMPOUND AND USE OF SAID COMPOUND” (APHEA.BIO NV, priority 2021, published 2024)
Values after ≈ are worked out from the molar mass of the structure shown. Values joined by “and” are separate entries in the source; they are usually repeats but may differ in a detail not shown here. Equal values may be shown once. Read-outs that look alike come from different tables or passages of the source.

Assays:
F. graminearum spores = assay type: cell-based, Fusarium graminearum; details: for Halo Diameter / Opacity Grade: 24 hours
Fusarium graminearum = assay: microbe, parasite or virus in culture; assay type: cell-based; details: 22 h
Puccinia striiformis = assay: Dose-response liquid-based assay against spores of Puccinia striiformis; assay type: cell-based; details: 48 h
Zymoseptoria tritici = assay: microbe, parasite or virus in culture; assay type: cell-based; details: 120 h, incubation 5 d
[1] = test system: Fusarium graminearum, Puccinia striiformis and Zymoseptoria tritici; assay: organism not typed; assay type: cell-based
[2] = read-out: Absorbance (600 nm): AC50 value, Estimation
[3] = read-out: Absorbance (600 nm): AC50 value, Range
[4] = read-out: Fluorescence of resazurin dye (excitation 570 nm, emission 615 nm): AC50 value, Estimation
[5] = read-out: Fluorescence of resazurin dye (excitation 570 nm, emission 615 nm): AC50 value, Range

Question: What does the source list for C[C@@H]1[C@H](O)[C@@H](C)/C=C/C=C/C=C/C=C/C=C/C=C/C=C/[C@H](O[C@@H]2O[C@H](C)[C@@H](O)[C@H](N)[C@@H]2O)C[C@@H]2O[C@](O)(C[C@@H](O)C[C@@H](O)[C@H](O)CC[C@@H](O)C[C@@H](O)CC(=O)O[C@H]1C)C[C@H](O)[C@H]2C(=O)O [Amphotericin B, reference compound]?
Answer: Halo Diameter (F. graminearum spores; 10 μL pipetted, 0.125 mg/mL): 9.3 mm; Opacity Grade (F. graminearum spores; 10 μL pipetted, 0.125 mg/mL): B (‘B’ means 60-80% inhibition of the pathogen); Halo Diameter (F. graminearum spores; 10 μL pipetted, 0.15625 mg/mL): 7.1 mm; Opacity Grade (F. graminearum spores; 10 μL pipetted, 0.15625 mg/mL): C (‘C’ means 40-60% inhibition of the pathogen); Halo Diameter (F. graminearum spores; 10 μL pipetted, 0.250 mg/mL): 9.2 mm and 9 mm and 9.3 mm and 8.7 mm; Opacity Grade (F. graminearum spores; 10 μL pipetted, 0.250 mg/mL): A (‘A’ means 80-100% inhibition of the pathogen); Halo Diameter (F. graminearum spores; 10 μL pipetted, 0.3125 mg/mL): 7.7 mm; Opacity Grade (F. graminearum spores; 10 μL pipetted, 0.3125 mg/mL): C (‘C’ means 40-60% inhibition of the pathogen); Halo Diameter (F. graminearum spores; 10 μL pipetted, 0.625 mg/mL): 9.1 mm; Opacity Grade (F. graminearum spores; 10 μL pipetted, 0.625 mg/mL): B (‘B’ means 60-80% inhibition of the pathogen)

Question: Which “Halo Diameter” value (F. graminearum spores; 2 μL pipetted, 0.125 mg/mL) does the source give for C=C/C(C)=C/[C@@H](C)C(=O)CC(CC(CC(N)=O)CC(=O)O)SC (stereo partly shown) [C17H27NO4S] here?
Answer: The value was 4.4 mm and 4.7 mm and 4.3 mm.

Question: And the “Opacity Grade” value (F. graminearum spores; 2 μL pipetted, 0.125 mg/mL)?
Answer: Its value is “E (‘E’ means 0-20% inhibition of the pathogen)”.

Question: And the “Halo Diameter” value (F. graminearum spores; 2 μL pipetted, 0.250 mg/mL)?
Answer: Its value is 5.5 mm and 5.6 mm.

Question: What about the “Opacity Grade” value (F. graminearum spores; 2 μL pipetted, 0.250 mg/mL) of the same compound?
Answer: Its value is “D (‘D’ means 20-40% inhibition of the pathogen)”.

Question: And the “Halo Diameter” value (F. graminearum spores; 2 μL pipetted, 0.500 mg/mL)?
Answer: Its value is 6.7 mm and 7.2 mm and 7.1 mm.

Question: What about the “Opacity Grade” value (F. graminearum spores; 2 μL pipetted, 0.500 mg/mL) of the same compound?
Answer: The value was “B (‘B’ means 60-80% inhibition of the pathogen)”.

Question: What about the “Halo Diameter” value (F. graminearum spores; 2 μL pipetted, 1 mg/mL) of the same compound?
Answer: The value was 8.3 mm and 8.2 mm.

Question: What about the “Opacity Grade” value (F. graminearum spores; 2 μL pipetted, 1 mg/mL) of the same compound?
Answer: Its value is “A (‘A’ means 80-100% inhibition of the pathogen)”.

Question: What about the “Halo Diameter” value (F. graminearum spores; 2 μL pipetted, 2 mg/mL) of the same compound?
Answer: Its value is 9.1 mm and 9.3 mm.

Question: What about the “Opacity Grade” value (F. graminearum spores; 2 μL pipetted, 2 mg/mL) of the same compound?
Answer: Its value is “A (‘A’ means 80-100% inhibition of the pathogen)”.

Question: And the “Halo Diameter” value (F. graminearum spores; 2 μL pipetted, 4 mg/mL)?
Answer: Its value is 9.5 mm and 9.2 mm and 9.6 mm.

Question: What about the “Opacity Grade” value (F. graminearum spores; 2 μL pipetted, 4 mg/mL) of the same compound?
Answer: Its value is “A (‘A’ means 80-100% inhibition of the pathogen)”.

Question: What about the “Halo Diameter” value (F. graminearum spores; 2 μL pipetted, 8 mg/mL) of the same compound?
Answer: Its value is 9.8 mm and 9.2 mm and 9.7 mm.

Question: And the “Opacity Grade” value (F. graminearum spores; 2 μL pipetted, 8 mg/mL)?
Answer: Its value is “A (‘A’ means 80-100% inhibition of the pathogen)”.

Question: And the “Activity against F. graminearum spores” value (F. graminearum spores; all concentrations tested (8 mg/mL to 125 μg/mL))?
Answer: The value was “active”.

Question: And the AC50 (Fusarium graminearum; [2])?
Answer: The AC50 was 8.9 µg/mL (≈ 26.1 µM).

Question: What about the AC50 (Fusarium graminearum; [3]) of the same compound?
Answer: Its AC50 is 7.54 to 10.5 µg/mL (≈ 22.1 to 30.7 µM).

Question: And the AC50 (Fusarium graminearum; [4])?
Answer: Its AC50 is 13.2 µg/mL (≈ 38.8 µM).

Question: And the AC50 (Fusarium graminearum; [5])?
Answer: The AC50 was 11.8 to 14.8 µg/mL (≈ 34.6 to 43.5 µM).

Question: What about the AC50 (Puccinia striiformis; [4]) of the same compound?
Answer: Its AC50 is 12.8 µg/mL (≈ 37.5 µM).

Question: What about the AC50 (Puccinia striiformis; [5]) of the same compound?
Answer: Its AC50 is 11.7 to 14 µg/mL (≈ 34.1 to 41.1 µM).

Question: What about the AC50 (Zymoseptoria tritici; [2]) of the same compound?
Answer: The AC50 was 16 µg/mL (≈ 46.9 µM).

Question: What about the AC50 (Zymoseptoria tritici; [3]) of the same compound?
Answer: The AC50 was 14.9 to 17.2 µg/mL (≈ 43.7 to 50.4 µM).

Question: What about the AC50 (Zymoseptoria tritici; [4]) of the same compound?
Answer: The AC50 was 15.9 µg/mL (≈ 46.6 µM).

Question: What about the AC50 (Zymoseptoria tritici; [5]) of the same compound?
Answer: Its AC50 is 14.8 to 17.1 µg/mL (≈ 43.3 to 50 µM).

Question: What about the AC50 ([1]; read-out: Active concentrations (AC50 ranges) for hyphal growth in the wells) of the same compound?
Answer: The AC50 was 7.54 to 17.2 µg/mL (≈ 22.1 to 50.4 µM).

Question: And the AC50 ([1]; read-out: Active concentrations (AC50 ranges) for metabolic activity)?
Answer: Its AC50 is 11.7 to 17.1 µg/mL (≈ 34.1 to 50 µM).
